Tested on: 496974-208-R-J2-PDC complex spheroids, growth % test/control
Assay: Anticancer human tumor 496974-208-R-J2-PDC patient-derived pancreatic carcinoma cell line growth inhibition [CLK]
Conditions: for IC50: curve of first compound; for viability, T/C: stronger effect = lower value
Outline: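 Multi-cell-type spheroids combined patient-derived tumor cells with HUVEC endothelial cells and human mesenchymal stem cells. Paired agents were dosed in half-log steps down from about clinical Cmax, or from 10 microM where Cmax was unknown.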

[1] = second compound 0.0316 µM, first compound 0.0316 µM
[2] = second compound 0.0316 µM, first compound 0.1 µM
[3] = second compound 0.0316 µM, first compound 0.316 µM
[4] = second compound 0.0316 µM, first compound 1 µM
[5] = second compound 0.0316 µM, first compound 3.16 µM
[6] = second compound 0.0316 µM, first compound 10 µM
[7] = second compound 0.1 µM, first compound 0.0316 µM
[8] = second compound 0.1 µM, first compound 0.1 µM
[9] = second compound 0.1 µM, first compound 0.316 µM
[10] = second compound 0.1 µM, first compound 1 µM
[11] = second compound 0.1 µM, first compound 3.16 µM
[12] = second compound 0.1 µM, first compound 10 µM
[13] = second compound 0.316 µM, first compound 0.0316 µM
[14] = second compound 0.316 µM, first compound 0.1 µM
[15] = second compound 0.316 µM, first compound 0.316 µM
[16] = second compound 0.316 µM, first compound 1 µM
[17] = second compound 0.316 µM, first compound 3.16 µM
[18] = second compound 0.316 µM, first compound 10 µM
[19] = second compound 1 µM, first compound 0.0316 µM
[20] = second compound 1 µM, first compound 0.1 µM
[21] = second compound 1 µM, first compound 0.316 µM
[22] = second compound 1 µM, first compound 1 µM
[23] = second compound 1 µM, first compound 3.16 µM
[24] = second compound 1 µM, first compound 10 µM
[25] = second compound 3.16 µM, first compound 0.0316 µM
[26] = second compound 3.16 µM, first compound 0.1 µM
[27] = second compound 3.16 µM, first compound 0.316 µM
[28] = second compound 3.16 µM, first compound 1 µM
[29] = second compound 3.16 µM, first compound 3.16 µM
[30] = second compound 3.16 µM, first compound 10 µM
[31] = second compound 10 µM, first compound 0.0316 µM
[32] = second compound 10 µM, first compound 0.1 µM
[33] = second compound 10 µM, first compound 0.316 µM
[34] = second compound 10 µM, first compound 1 µM
[35] = second compound 10 µM, first compound 3.16 µM
[36] = second compound 10 µM, first compound 10 µM
[37] = second compound 0.0316 µM, first compound 0.00316 µM
[38] = second compound 0.0316 µM, first compound 0.01 µM
[39] = second compound 0.1 µM, first compound 0.00316 µM
[40] = second compound 0.1 µM, first compound 0.01 µM
[41] = second compound 0.316 µM, first compound 0.00316 µM
[42] = second compound 0.316 µM, first compound 0.01 µM
[43] = second compound 1 µM, first compound 0.00316 µM
[44] = second compound 1 µM, first compound 0.01 µM
[45] = second compound 3.16 µM, first compound 0.00316 µM
[46] = second compound 3.16 µM, first compound 0.01 µM
[47] = second compound 10 µM, first compound 0.00316 µM
[48] = second compound 10 µM, first compound 0.01 µM
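Note: spheroids exposed to the drugs for 7 days before readout.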
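Throughout, for viability, T/C: 100% = DMSO vehicle control wells.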

CC(CO)NC(=O)c1cc(-c2ccc(Cl)cc2)nn(-c2cnn(C)c2)c1=O (stereo not drawn) + CNC(=O)c1ccc(Nc2nc(OC3CCCC3)c3c(-c4ccc5nc(C)oc5c4)c[nH]c3n2)c(OC)c1 gave an IC50 (second compound 0.0316 µM) of over 10000 nM, an IC50 (second compound 0.1 µM) of 6650 nM and an IC50 (second compound 0.316 µM) of 6970 nM. The IC50 (second compound 1 µM) was 3290 nM, the IC50 (second compound 3.16 µM) was 5160 nM and the IC50 (second compound 10 µM) was 4140 nM. For the same compound, the viability, T/C [1] was 103%, the viability, T/C [2] was 91.4% and the viability, T/C [3] was 92.8%. The viability, T/C [4] was 90.4%, the viability, T/C [5] was 89.1% and the viability, T/C [6] was 55%. The viability, T/C [7] was 87.3%, the viability, T/C [8] was 74.5% and the viability, T/C [9] was 80.8%. The viability, T/C [10] was 63.1%, the viability, T/C [11] was 65.4% and the viability, T/C [12] was 42.6%. It also gave a viability, T/C [13] of 79.2%, a viability, T/C [14] of 67.3% and a viability, T/C [15] of 72.6%. It also gave a viability, T/C [16] of 69%, a viability, T/C [17] of 59.4% and a viability, T/C [18] of 44.9%. It also gave a viability, T/C [19] of 71%, a viability, T/C [20] of 71.8% and a viability, T/C [21] of 63.5%. The viability, T/C [22] was 59.7%, the viability, T/C [23] was 50.9% and the viability, T/C [24] was 37.9%. It also gave a viability, T/C [25] of 62.4%, a viability, T/C [26] of 57.9% and a viability, T/C [27] of 52%. It also gave a viability, T/C [28] of 58.4%, a viability, T/C [29] of 56.6% and a viability, T/C [30] of 41.1%. The viability, T/C [31] was 55.5%, the viability, T/C [32] was 54.8% and the viability, T/C [33] was 49.8%. For the same compound, the viability, T/C [34] was 47.1%, the viability, T/C [35] was 56.5% and the viability, T/C [36] was 41%.
For CC(Nc1ccc2c(c1)OCCn1cc(N3C(=O)OCC3C(F)F)nc1-2)C(N)=O (stereo not drawn) + CNC(=O)c1ccc(Nc2nc(OC3CCCC3)c3c(-c4ccc5nc(C)oc5c4)c[nH]c3n2)c(OC)c1, the IC50 (second compound 0.0316 µM) was 150 nM, the IC50 (second compound 0.1 µM) was 184 nM and the IC50 (second compound 0.316 µM) was 95.5 nM. The IC50 (second compound 1 µM) was 68.7 nM, the IC50 (second compound 3.16 µM) was 49.2 nM and the IC50 (second compound 10 µM) was under 31.6 nM. The viability, T/C [1] was 87.2%, the viability, T/C [2] was 55.2% and the viability, T/C [3] was 38.5%. For the same compound, the viability, T/C [4] was 23.6%, the viability, T/C [5] was 16.9% and the viability, T/C [6] was 9.1%. The viability, T/C [7] was 70.5%, the viability, T/C [8] was 63.7% and the viability, T/C [9] was 37.5%. It also gave a viability, T/C [10] of 23.7%, a viability, T/C [11] of 15.5% and a viability, T/C [12] of 10.6%. The viability, T/C [13] was 76.6%, the viability, T/C [14] was 48.4% and the viability, T/C [15] was 30.1%. The viability, T/C [16] was 23.4%, the viability, T/C [17] was 15.5% and the viability, T/C [18] was 9.62%. For the same compound, the viability, T/C [19] was 58.8%, the viability, T/C [20] was 46.8% and the viability, T/C [21] was 32.3%. The viability, T/C [22] was 20.1%, the viability, T/C [23] was 18.4% and the viability, T/C [24] was 9.57%. For the same compound, the viability, T/C [25] was 56.9%, the viability, T/C [26] was 38.6% and the viability, T/C [27] was 28.3%. The viability, T/C [28] was 20%, the viability, T/C [29] was 17.6% and the viability, T/C [30] was 12.8%. For the same compound, the viability, T/C [31] was 47.2%, the viability, T/C [32] was 38.8% and the viability, T/C [33] was 24.6%. The viability, T/C [34] was 19%, the viability, T/C [35] was 15.6% and the viability, T/C [36] was 13.7%.
Work on CCN1CCN(Cc2ccc(Nc3ncc(F)c(-c4cc(F)c5nc(C)n(C(C)C)c5c4)n3)nc2)CC1 + CNC(=O)c1ccc(Nc2nc(OC3CCCC3)c3c(-c4ccc5nc(C)oc5c4)c[nH]c3n2)c(OC)c1 yielded an IC50 (second compound 0.0316 µM) of over 1000 nM, an IC50 (second compound 0.1 µM) of over 1000 nM and an IC50 (second compound 0.316 µM) of over 1000 nM. The IC50 (second compound 1 µM) was over 1000 nM, the IC50 (second compound 3.16 µM) was over 1000 nM and the IC50 (second compound 10 µM) was over 1000 nM. It also gave a viability, T/C [37] of 91.7%, a viability, T/C [38] of 90.2% and a viability, T/C [1] of 90.1%. The viability, T/C [2] was 94.2%, the viability, T/C [3] was 98% and the viability, T/C [4] was 98.4%. For the same compound, the viability, T/C [39] was 89.5%, the viability, T/C [40] was 88.9% and the viability, T/C [7] was 87.9%. The viability, T/C [8] was 84.2%, the viability, T/C [9] was 86.8% and the viability, T/C [10] was 97.5%. For the same compound, the viability, T/C [41] was 81.3%, the viability, T/C [42] was 81.9% and the viability, T/C [13] was 87.8%. For the same compound, the viability, T/C [14] was 81.4%, the viability, T/C [15] was 85.4% and the viability, T/C [16] was 94.8%. It also gave a viability, T/C [43] of 78.7%, a viability, T/C [44] of 81.2% and a viability, T/C [19] of 77.7%. For the same compound, the viability, T/C [20] was 76.3%, the viability, T/C [21] was 92.6% and the viability, T/C [22] was 81.8%. It also gave a viability, T/C [45] of 72.5%, a viability, T/C [46] of 71.9% and a viability, T/C [25] of 66.7%. For the same compound, the viability, T/C [26] was 77.6%, the viability, T/C [27] was 69.3% and the viability, T/C [28] was 73.7%. It also gave a viability, T/C [47] of 63%, a viability, T/C [48] of 61.7% and a viability, T/C [31] of 67.7%. It also gave a viability, T/C [32] of 69.3%, a viability, T/C [33] of 74.7% and a viability, T/C [34] of 75%.
COc1c(OCCCN2CCOCC2)ccc2c3n(c(=NC(=O)c4cnc(N)nc4)nc12)CCN3 + CNC(=O)c1ccc(Nc2nc(OC3CCCC3)c3c(-c4ccc5nc(C)oc5c4)c[nH]c3n2)c(OC)c1 was tested, and the IC50 (second compound 0.0316 µM) was 17.4 nM, the IC50 (second compound 0.1 µM) was 16.2 nM and the IC50 (second compound 0.316 µM) was 11.1 nM. For the same compound, the IC50 (second compound 1 µM) was 7.96 nM, the IC50 (second compound 3.16 µM) was 4.74 nM and the IC50 (second compound 10 µM) was 3.25 nM. The viability, T/C [37] was 88.2%, the viability, T/C [38] was 68.6% and the viability, T/C [1] was 29.4%. It also gave a viability, T/C [2] of 14.5%, a viability, T/C [3] of 9.14% and a viability, T/C [4] of 4.1%. For the same compound, the viability, T/C [39] was 76.9%, the viability, T/C [40] was 64.2% and the viability, T/C [7] was 30.2%. For the same compound, the viability, T/C [8] was 16.1%, the viability, T/C [9] was 12.5% and the viability, T/C [10] was 7.78%. For the same compound, the viability, T/C [41] was 70.3%, the viability, T/C [42] was 53.4% and the viability, T/C [13] was 24.8%. The viability, T/C [14] was 15.1%, the viability, T/C [15] was 11.2% and the viability, T/C [16] was 5.48%. For the same compound, the viability, T/C [43] was 61.2%, the viability, T/C [44] was 47.7% and the viability, T/C [19] was 27.5%. The viability, T/C [20] was 14%, the viability, T/C [21] was 12.3% and the viability, T/C [22] was 5.46%. For the same compound, the viability, T/C [45] was 54.4%, the viability, T/C [46] was 42% and the viability, T/C [25] was 26.1%. It also gave a viability, T/C [26] of 16.1%, a viability, T/C [27] of 8.87% and a viability, T/C [28] of 6.58%. The viability, T/C [47] was 50%, the viability, T/C [48] was 37.7% and the viability, T/C [31] was 21.9%. It also gave a viability, T/C [32] of 12.4%, a viability, T/C [33] of 9.58% and a viability, T/C [34] of 3.59%.

Source: PubChem BioAssay AID2060615 (Molecular Pharmacology Branch, DTP, NCI, 2025)
